In PubChem BioAssay AID248 (DTP/NCI, 2004):
Values joined by “and” are separate entries in the source; they are usually repeats but may differ in a detail not shown here. Equal entries are not always repeated. Inconclusive results and toxic doses are left out.

Tested on: L1210 leukemia ip in BDF1 mice, survival T/C
Test: NCI In Vivo Anticancer Drug Screen. Data for tumor model L1210 Leukemia (intraperitoneal) in B6D2F1 (BDF1) mice
Conditions: endpoint: mean survival time, higher = longer survival
How it was run: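 Survival endpoint. Drug-treated group vs vehicle group, expressed as T divided by C. Tumor passaged by transplantation.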

[1] = dose: 100.0 mg/kg/injection, schedule: Q04DX003 (ip), vehicle: saline
[2] = dose: 200.0 mg/kg/injection, schedule: Q04DX003 (ip), vehicle: saline
[3] = dose: 400.0 mg/kg/injection, schedule: Q04DX003 (ip), vehicle: saline
[4] = dose: 100.0 mg/kg/injection, schedule: Q01DX001 (ip), vehicle: saline
[5] = dose: 200.0 mg/kg/injection, schedule: Q01DX001 (ip), vehicle: saline
[6] = dose: 100.0 mg/kg/injection, schedule: Q01DX009 (ip), vehicle: Klucel (hydroxypropylcellulose) (HPC)
[7] = dose: 200.0 mg/kg/injection, schedule: Q01DX009 (ip), vehicle: Klucel (hydroxypropylcellulose) (HPC)
[8] = dose: 100.0 mg/kg/injection, schedule: Q01DX009 (ip), vehicle: saline with Tween-80
[9] = dose: 200.0 mg/kg/injection, schedule: Q01DX009 (ip), vehicle: saline with Tween-80
[10] = dose: 100.0 mg/kg/injection, schedule: Q04DX002 (ip), vehicle: Klucel (hydroxypropylcellulose) (HPC)
[11] = dose: 200.0 mg/kg/injection, schedule: Q04DX002 (ip), vehicle: Klucel (hydroxypropylcellulose) (HPC)
[12] = dose: 400.0 mg/kg/injection, schedule: Q04DX002 (ip), vehicle: Klucel (hydroxypropylcellulose) (HPC)
[13] = dose: 100.0 mg/kg/injection, schedule: Q01DX001 (ip), vehicle: carboxymethylcellulose (CMC)
[14] = dose: 200.0 mg/kg/injection, schedule: Q01DX001 (ip), vehicle: carboxymethylcellulose (CMC)
[15] = dose: 400.0 mg/kg/injection, schedule: Q01DX001 (ip), vehicle: saline
[16] = dose: 100.0 mg/kg/injection, schedule: Q04DX003 (ip), vehicle: Klucel (hydroxypropylcellulose) (HPC)
[17] = dose: 200.0 mg/kg/injection, schedule: Q04DX003 (ip), vehicle: Klucel (hydroxypropylcellulose) (HPC)
[18] = dose: 400.0 mg/kg/injection, schedule: Q04DX003 (ip), vehicle: Klucel (hydroxypropylcellulose) (HPC)

For `COc1ccc(Br)cc1/C=N\NS(=O)(=O)c1ccc(C)cc1`, the T/C (dose: 100.0 mg/kg/injection, schedule: Q01DX009 (ip), vehicle: other) was 100 % of control, the T/C [1] was 96 % of control and the T/C (dose: 200.0 mg/kg/injection, schedule: Q01DX009 (ip), vehicle: other) was 105 % of control. The T/C [2] was 96 % of control, the T/C (dose: 400.0 mg/kg/injection, schedule: Q01DX009 (ip), vehicle: other) was 114 % of control and the T/C [3] was 93 % of control.
`CC1(C)C[N+](C)(Cc2ccccc2)N=C1[O-]` (stereo not given) was tested, and the T/C (dose: 25.0 mg/kg/injection, schedule: Q01DX001 (ip), vehicle: saline) was 94 % of control, the T/C (dose: 50.0 mg/kg/injection, schedule: Q01DX001 (ip), vehicle: saline) was 94 % of control and the T/C [4] was 94 % of control. For the same compound, the T/C [5] was 102 % of control.
With `Cc1cc(C)cc(OCC2CNC(=O)O2)c1` (stereo not given) the T/C (dose: 25.0 mg/kg/injection, schedule: Q01DX009 (ip), vehicle: Klucel (hydroxypropylcellulose) (HPC)) was 101 % of control, the T/C (dose: 25.0 mg/kg/injection, schedule: Q04DX003 (ip), vehicle: saline) was 90 % of control and the T/C (dose: 50.0 mg/kg/injection, schedule: Q01DX009 (ip), vehicle: Klucel (hydroxypropylcellulose) (HPC)) was 114 % of control. For the same compound, the T/C (dose: 50.0 mg/kg/injection, schedule: Q04DX003 (ip), vehicle: saline) was 92 % of control, the T/C [6] was 100 % of control and the T/C [7] was 100 % of control. For the same compound, the T/C [2] was 90 % of control, the T/C (dose: 400.0 mg/kg/injection, schedule: Q01DX009 (ip), vehicle: Klucel (hydroxypropylcellulose) (HPC)) was 103 % of control and the T/C [3] was 113 % of control.
In the case of `NC(N)=Nc1ccccc1`, the T/C (dose: 50.0 mg/kg/injection, schedule: Q01DX009 (ip), vehicle: saline with Tween-80) is reported as 107 % of control, the T/C [8] is reported as 101 % of control and the T/C [1] is reported as 101 % of control. For the same compound, the T/C [9] was 104 % of control and the T/C [2] was 115 % of control.
For `CC12C=CC3(CCC4C(C)(C)C(O[N+](=O)[O-])C(=O)CC4(C)C3CC1=O)C2` (stereo not given), the T/C (dose: 75.0 mg/kg/injection, schedule: Q01DX009 (ip), vehicle: Klucel (hydroxypropylcellulose) (HPC)) was 108 % of control, the T/C (dose: 100.0 mg/kg/injection, schedule: Q01DX001 (ip), vehicle: Klucel (hydroxypropylcellulose) (HPC)) was 92 % of control and the T/C (dose: 150.0 mg/kg/injection, schedule: Q01DX009 (ip), vehicle: Klucel (hydroxypropylcellulose) (HPC)) was 100 % of control. The T/C (dose: 200.0 mg/kg/injection, schedule: Q01DX001 (ip), vehicle: Klucel (hydroxypropylcellulose) (HPC)) was 95 % of control, the T/C (dose: 300.0 mg/kg/injection, schedule: Q01DX009 (ip), vehicle: Klucel (hydroxypropylcellulose) (HPC)) was 98 % of control and the T/C (dose: 400.0 mg/kg/injection, schedule: Q01DX001 (ip), vehicle: Klucel (hydroxypropylcellulose) (HPC)) was 88 % of control.
With `CN=C(NCCCOC)c1ccc(NC(=O)c2ccc(C(=O)Nc3ccc(C(=NC)NCCCOC)cc3)c([N+](=O)[O-])c2)cc1` the T/C (dose: 1.0 mg/kg/injection, schedule: Q01DX Z (ip), vehicle: carboxymethylcellulose (CMC)) was 91 % of control, the T/C (dose: 1.88 mg/kg/injection, schedule: Q01DX Z (ip), vehicle: saline) was 92 % of control and the T/C (dose: 2.0 mg/kg/injection, schedule: Q01DX Z (ip), vehicle: carboxymethylcellulose (CMC)) was 91 % of control. The T/C (dose: 3.75 mg/kg/injection, schedule: Q01DX Z (ip), vehicle: saline) was 98 % of control, the T/C (dose: 4.0 mg/kg/injection, schedule: Q01DX Z (ip), vehicle: carboxymethylcellulose (CMC)) was 92 % of control and the T/C (dose: 7.5 mg/kg/injection, schedule: Q01DX Z (ip), vehicle: saline) was 104 % of control. For the same compound, the T/C (dose: 8.0 mg/kg/injection, schedule: Q01DX Z (ip), vehicle: carboxymethylcellulose (CMC)) was 95 % of control, the T/C (dose: 15.0 mg/kg/injection, schedule: Q01DX Z (ip), vehicle: carboxymethylcellulose (CMC)) was 101 % of control and the T/C (dose: 15.0 mg/kg/injection, schedule: Q01DX Z (ip), vehicle: saline) was 92 % of control.
In the case of `O=C1OC(c2ccc(Cl)cc2)=N/C1=C\c1ccccc1`, the T/C (dose: 100.0 mg/kg/injection, schedule: Q04DX003 (ip), vehicle: saline with Tween-80) is reported as 100 % of control, the T/C (dose: 200.0 mg/kg/injection, schedule: Q04DX003 (ip), vehicle: saline with Tween-80) is reported as 90 % of control and the T/C (dose: 400.0 mg/kg/injection, schedule: Q04DX003 (ip), vehicle: saline with Tween-80) is reported as 91 % of control.
In the case of `Cc1cc(C)c(NC(=O)NC2CCCCC2)cc1C`, the T/C [10] is reported as 105 % of control, the T/C [11] is reported as 94 % of control and the T/C [12] is reported as 94 % of control.
In the case of `COc1ccccc1OC(=O)c1ccccc1OC(=O)c1cccnc1`, the T/C (dose: 100.0 mg/kg/injection, schedule: Q04DX002 (ip), vehicle: saline with Tween-80) is reported as 101 % of control, the T/C (dose: 200.0 mg/kg/injection, schedule: Q04DX002 (ip), vehicle: saline with Tween-80) is reported as 96 % of control and the T/C (dose: 400.0 mg/kg/injection, schedule: Q04DX002 (ip), vehicle: saline with Tween-80) is reported as 89 % of control.
`O=C(Nc1cccnc1)c1ccc([N+](=O)[O-])s1` was tested, and the T/C (dose: 50.0 mg/kg/injection, schedule: Q01DX005 (ip), vehicle: saline) was 102 % of control, the T/C (dose: 100.0 mg/kg/injection, schedule: Q01DX005 (ip), vehicle: saline) was 117 % of control and the T/C (dose: 400.0 mg/kg/injection, schedule: Q01DX005 (ip), vehicle: saline) was 173 % of control.
In the case of `CCCN1CCCC(OC(=O)N(C)C)C1` (stereo not given), the T/C [10] is reported as 86 % of control and the T/C [11] is reported as 104 % of control.
`CC(=O)Nc1c(Br)cc2c(c1Br)C(=O)c1cc(Br)ccc1-2` was tested, and the T/C [13] was 100 % of control, the T/C [14] was 100 % of control and the T/C (dose: 400.0 mg/kg/injection, schedule: Q01DX001 (ip), vehicle: carboxymethylcellulose (CMC)) was 100 % of control.
`COc1ccc(CN(C)N=Nc2ccc(C#N)cc2)cc1` was tested, and the T/C [8] was 98 % of control, the T/C [9] was 119 % of control and the T/C (dose: 400.0 mg/kg/injection, schedule: Q01DX009 (ip), vehicle: saline with Tween-80) was 124 % of control.
For `C=CCc1ccc(OC(=O)Nc2ccc(Cl)cc2)c(OC)c1`, the T/C [10] was 115 % of control, the T/C [11] was 107 % of control and the T/C [12] was 100 % of control.
With `CC1(C)N=C(N)N=C(N)N1c1ccc(CCC(=O)Nc2cccc(S(=O)(=O)F)c2)cc1` the T/C (dose: 0.8 mg/kg/injection, schedule: Q01DX009 (ip), vehicle: saline) was 98 % of control, the T/C (dose: 4.0 mg/kg/injection, schedule: Q01DX009 (ip), vehicle: saline) was 106 % of control and the T/C (dose: 20.0 mg/kg/injection, schedule: Q01DX009 (ip), vehicle: saline) was 108 % of control. The T/C (dose: 25.0 mg/kg/injection, schedule: Q#A X018 (ip), vehicle: saline) was 119 % of control, the T/C (dose: 50.0 mg/kg/injection, schedule: Q01DX009 (ip), vehicle: saline) was 111 % of control and the T/C (dose: 50.0 mg/kg/injection, schedule: Q#A X018 (ip), vehicle: saline) was 113 % of control. The T/C (dose: 100.0 mg/kg/injection, schedule: Q01DX009 (ip), vehicle: saline) was 112 % of control and 122 % of control and the T/C (dose: 100.0 mg/kg/injection, schedule: Q#A X018 (ip), vehicle: saline) was 88 % of control.
With `CC(COc1cc(Cl)c(Cl)cc1Cl)OC(=O)COc1ccc(Cl)cc1Cl` (stereo not given) the T/C [4] was 88 % of control, the T/C [5] was 95 % of control and the T/C [15] was 95 % of control.
For `CCC(O)C(C)CO` (stereo not given), the T/C [4] was 103 % of control, the T/C [5] was 121 % of control and the T/C [15] was 97 % of control.
In the case of `O=C(O)C1CC2C3(Cl)C(Cl)=C(Cl)C(Cl)C2(CC1c1c2ccc(=O)c(O)c-2oc2c(O)c(O)ccc12)C3(Cl)Cl` (stereo not given), the T/C [16] is reported as 96 % of control, the T/C [17] is reported as 94 % of control and the T/C [18] is reported as 96 % of control.
With `Cc1nc2ccccc2o1` the T/C (dose: 100.0 mg/kg/injection, schedule: Q04DX002 (ip), vehicle: other) was 104 % of control, the T/C (dose: 200.0 mg/kg/injection, schedule: Q04DX002 (ip), vehicle: other) was 96 % of control and the T/C (dose: 400.0 mg/kg/injection, schedule: Q04DX002 (ip), vehicle: other) was 118 % of control.
For `CC(=O)Nc1ccc(Br)cc1`, the T/C (dose: 50.0 mg/kg/injection, schedule: Q01DX001 (ip), vehicle: carboxymethylcellulose (CMC)) was 92 % of control, the T/C [13] was 93 % of control and the T/C [6] was 103 % of control. For the same compound, the T/C [16] was 98 % of control, the T/C [14] was 93 % of control and the T/C [7] was 113 % of control. For the same compound, the T/C [17] was 104 % of control and the T/C [18] was 106 % of control.
